Values quoted from earlier work, collected in patent US20120064155A1, “ORAL PHARMACEUTICAL COMPOSITION FOR USE IN RESPIRATORY DISEASES” (LABORATORIOS SENOSIAIN S.A. DE C.V., priority 2009, published 2012).
≈ marks a conversion by molar mass, not a printed value.

What was measured:
[1] = after oral administration; approximately

CCOC(=O)N1CCC(=C2c3ccc(Cl)cc3CCc3cccnc32)CC1 [Loratadine]
start of antihistamine effect [1]: ≤ 30 min

CNC[C@H](O)c1cccc(O)c1 [Phenylephrine]
bound to plasma proteins (plasma proteins): 95% | water solubility: 100 mg/mL (≈ 598 mM)
